Reference: patent publication US8653075B2, “Therapeutic methods employing substituted piperidines which are CCR3 antagonists” (Boehringer Ingelheim International GmbH, priority 2009, dated 2014)

Target: T1, human chemokine receptor CCR3 (Homo sapiens, UniProt P51677)
T1 construct: expressed in transfected cells; host or cells: K562 cell line (hCCR3-C1 cells), membrane preparation
T1 sequence (P51677 1-355): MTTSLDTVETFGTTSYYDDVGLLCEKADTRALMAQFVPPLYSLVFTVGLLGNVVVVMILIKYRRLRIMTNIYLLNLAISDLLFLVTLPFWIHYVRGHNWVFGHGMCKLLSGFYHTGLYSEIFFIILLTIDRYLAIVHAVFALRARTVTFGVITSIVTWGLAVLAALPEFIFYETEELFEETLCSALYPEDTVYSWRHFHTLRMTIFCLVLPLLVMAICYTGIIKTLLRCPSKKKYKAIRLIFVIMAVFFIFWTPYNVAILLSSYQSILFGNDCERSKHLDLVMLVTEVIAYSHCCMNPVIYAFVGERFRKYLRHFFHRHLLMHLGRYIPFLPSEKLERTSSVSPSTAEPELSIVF
Test: CCR3 receptor binding assay (SPA, 125I-eotaxin-1 displacement, hCCR3-C1 K562 cell membranes)
Details: human Eotaxin-1 at human CCR3-Rezeptor; for inhibition at 1 µM: 1 μM test compound, read-out: CCR3 % inh @ 1 μM; for Ki: dose range 0.1 to 10000 nM
Method: The CCR3 receptor binding test is based on a K562 cell line (leukemia myelogenic blast cells) transfected with the human chemokine receptor CCR3 (hCCR3-C1 cells). The cell membranes were prepared by disrupting the hCCR3-C1 cells by […]. The preparation was centrifuged at 400 g 4° C. for 30 min. The supernatant was transferred into fresh tubes followed by a second centrifugation at 48000 g, 4° C. for 1 h. The membranes were re-suspended in the SPA incubation buffer (25 mM HEPES, 25 mM MgCl2 6×H2O, 1 mM CaCl2 2×H2O) without bovine serum albumin and homogenized by passing through a single use needle (Terumo, 23Gx1″). The membranes were stored in aliquots at −80° C.
The CCR3 receptor binding assay was performed in a Scintillation Proximity Assay (SPA) design with the radioligand recombinant human ^125Iodine-eotaxin-1. Cell membranes of hCCR3 C1 cells were again homogenized by passing through a single use needle (Terumo, 23Gx1″) and diluted in SPA incubation buffer in suitable concentrations (0.5-10 μg protein/well) in 96 well microtiter plates (1450-514, Perkin Elmer). The SPA assay was set up in the SPA incubation buffer with a final volume of 200 μl and final concentration of 25 mM HEPES, 25 mM MgCl2 6×H2O, 1 mM CaCl2 2×H2O and 0.1% bovine serum albumin. The SPA assay mixture contained 60 μl of the membrane suspension, 80 μl of Wheat Germ Agglutinin coated PVT beads (organic scintillator, GE Healthcare, RPNQ-0001) 0.2 mg/well), 40 μl of recombinant human ^125Jodine-eotaxin-1 (Biotrend), diluted in SPA buffer to a final concentration of 30.000 dpm per well, and 20 μl of the test compound (dissolved in DMSO dilutions). The SPA assay mixture was incubated for 2 h at room temperature. Bound radioactivity was determined with a scintillation counter (Micro Beta “Trilux”, Wallac). Included were controls for total binding (no displacer added, Bo) and non-specific binding (NSB) by adding unlabelled recombinant human Eotaxin-1 (Biotrend, Cat #300-21) or a reference compound.
Determination of the affinity of a test compound was calculated by subtraction of the non-specific binding (NSB) from the total binding (Bo) or the binding in the presence of the test compound (B) at a given compound concentration. […] The Bo-NSB value was set to 0% inhibition.
% inhibition and Ki values are (human Eotaxin-1 at human CCR3-Rezeptor): […]

| SMILES | inhibition at 1 µM | Ki |
| --- | --- | --- |
| CCOC(=O)c1nnc(NC(=O)[C@H]2CCC(=O)N2C2CCN(Cc3ccc(Cl)c(C)c3)CC2)s1 [Example 3] | 75% | 240 nM |
| COc1ccc2c(c1)CN(C(=O)[C@@H]1CCC(=O)N1C1CCN(Cc3ccc(Cl)c(C)c3)CC1)CC2 [Example 72] | 48% | 875 nM |
| CNC(=O)c1cccc(NC(=O)[C@@H]2CN(C)C(=O)N2C2CCN(Cc3ccc(Cl)c(C)c3)CC2)c1 [Example 127] | 90% | 81 nM |
| COc1ccc(NC(=O)[C@H]2CCC(=O)N2C2CCN(Cc3ccc(Cl)c(C)c3)CC2)cc1C(=O)N(C)CCO [Example 178] | 86% | 108 nM |
| CNc1nc(-c2cccc(NC(=O)[C@@H]3CN(C)C(=O)N3C3CCN(Cc4ccc(Cl)c(C)c4)CC3)c2)no1 [Example 128] | 87% | 96 nM |
| Cc1cc(CN2CCC(N3C(=O)CC[C@@H]3C(=O)Nc3ccc(N4CCCOC4=O)c(C)c3)CC2)ccc1Cl [Example 33] | 83% | 150 nM |
| Cc1cc(CN2CCC(N3C(=O)OC[C@H]3C(=O)Nc3cccc(C#N)c3)CC2)ccc1Cl [Example 116] | 93% | 47 nM |
| Cc1cc(CN2CCC(N3C(=O)CC[C@@H]3C(=O)Nc3cc(C(=O)N(C)C)cc(C(C)C)n3)CC2)ccc1Cl [Example 182] | 99% | 4 nM |
| Cc1cc(CN2CCC(N3C(=O)CC[C@H]3C(=O)Nc3ccc4c(c3)CCC(=O)N4)CC2)ccc1Cl [Example 23] | 95% | 18 nM |
| Cc1cc(CN2CCC(N3C(=O)CC[C@@H]3C(=O)Nc3cccc(N4CCCCC4)c3)CC2)ccc1Cl [Example 19] | 98% | 7 nM |
| Cc1cc(CN2CCC(N3C(=O)CC[C@H]3C(=O)N3CCc4cccc(F)c4C3)CC2)ccc1Cl [Example 58] | 76% | 221 nM |
| Cc1cc(CN2CCC(N3C(=O)CC[C@@H]3C(=O)Nc3cc(-c4nc[nH]n4)ccn3)CC2)ccc1Cl [Example 211] | 93% | 48 nM |
| Cc1cc(CN2CCC(N3C(=O)CC[C@@H]3C(=O)Nc3cccc(N4CCNC4=O)c3)CC2)ccc1Cl [Example 17] | 100% | 5 nM |
| CCn1nccc1CNC(=O)[C@H]1CCC(=O)N1C1CCN(Cc2ccc(Cl)c(C)c2)CC1 [Example 41] | 66% | 395 nM |
| Cc1cc(CN2CCC(N3C(=O)CC[C@@H]3C(=O)Nc3cccc(-c4c[nH]cn4)c3)CC2)ccc1Cl [Example 27] | 96% | 28 nM |
| Cc1cc(CN2CCC(N3C(=O)CC[C@@H]3C(=O)Nc3cccc(-c4nc[nH]n4)c3)CC2)ccc1Cl [Example 16] | 98% | 20 nM |
| Cc1cc(CN2CCC(N3C(=O)CC[C@@H]3C(=O)Nc3cccc(C(=O)N(C)Cc4ccco4)c3)CC2)ccc1Cl [Example 149] | 99% | 10 nM |
| Cc1cc(CN2CCC(N3C(=O)CC[C@@H]3C(=O)N3CCc4c(F)cccc4C3)CC2)ccc1Cl [Example 59] | 66% | 402 nM |
| Cc1nccc(-c2cccc(NC(=O)[C@H]3CCC(=O)N3C3CC4CCC(C3)N4Cc3ccc(Cl)c(C)c3)c2)n1 (stereo partly shown) [Example 86] | 65% | 419 nM |
| Cc1cc(CN2CCC(N3C(=O)CC[C@@H]3C(=O)Nc3cccc(-c4nnn(C)n4)c3)CC2)ccc1Cl [Example 5] | 98% | 6 nM |
| Cc1cc(CN2CCC(N3C(=O)CC[C@@H]3C(=O)Nc3cccc(C(=O)NCC(F)F)c3)CC2)ccc1Cl [Example 145] | 99% | 8 nM |
| COc1cccc2c1CCN(C(=O)[C@@H]1CCC(=O)N1C1CCN(Cc3ccc(Cl)c(C)c3)CC1)C2 [Example 71] | 49% | 810 nM |

| SMILES | inhibition at 1 µM | Ki |
| --- | --- | --- |
| Cc1cc(CN2CCC(N3C(=O)CC[C@@H]3C(=O)Nc3cccc(C(=O)N(C)C)c3)CC2)ccc1Cl [Example 141] | 94% | 6 nM |
| Cc1cc(CN2C3CCC2CC(N2C(=O)CC[C@@H]2C(=O)Nc2cccc(N(CC(=O)N(C)C)S(C)(=O)=O)c2)C3)ccc1Cl (stereo partly shown) [Example 76] | 97% | 37 nM |
| CNc1nc(-c2cccc(NC(=O)[C@H]3CN(C)C(=O)N3C3CCN(Cc4ccc(Cl)c(C)c4)CC3)c2)no1 [Example 122] | 95% | 30 nM |
| Cc1cc(CN2C3CCC2CC(N2C(=O)CC[C@@H]2C(=O)Nc2cccc(N(CC(=O)N(C)C)S(=O)(=O)C4CC4)c2)C3)ccc1Cl (stereo partly shown) [Example 78] | 94% | 50 nM |
| COc1cc(NC(=O)[C@H]2CCC(=O)N2C2CCN(Cc3ccc(Cl)c(C)c3)CC2)ccc1N1CCCCC1=O [Example 34] | 80% | 152 nM |
| CCN(CCO)C(=O)c1cccc(NC(=O)[C@H]2CCC(=O)N2C2CCN(Cc3ccc(Cl)c(C)c3)CC2)c1 [Example 156] | 98% | 15 nM |
| Cc1cc(CN2CCC(N3C(=O)CC[C@H]3C(=O)N3CCc4c(F)ccc(F)c4C3)CC2)ccc1Cl [Example 57] | 74% | 302 nM |
| Cc1cc(CN2C3CCC2CC(N2C(=O)CC[C@@H]2C(=O)Nc2cccc(C(N)=O)c2)C3)ccc1Cl (stereo partly shown) [Example 81] | 89% | 111 nM |
| Cc1cc(C(=O)N(C)C)cc(NC(=O)[C@H]2CCC(=O)N2C2CCN(Cc3ccc(Cl)c(C)c3)CC2)n1 [Example 135] | 101% | 3 nM |
| Cc1cc(CN2CCC(N3C(=O)CC[C@@H]3C(=O)Nc3cccc(-c4ccn(C)n4)c3)CC2)ccc1Cl [Example 9] | 95% | 12 nM |
| COC(=O)c1cc(NC(=O)[C@H]2CCC(=O)N2C2CCN(Cc3ccc(Cl)c(C)c3)CC2)cn1C [Example 94] | 94% | 52 nM |
| Cc1cc(C)n(-c2ccnc(NC(=O)[C@H]3CCC(=O)N3C3CCN(Cc4ccc(Cl)c(C)c4)CC3)c2)n1 [Example 102] | 100% | 19 nM |
| CCNS(=O)(=O)c1cccc(NC(=O)[C@H]2CCC(=O)N2C2CC3CCC(C2)N3Cc2ccc(Cl)c(C)c2)c1 (stereo partly shown) [Example 80] | 95% | 55 nM |
| CNC(=O)c1cc(F)cc(NC(=O)[C@H]2CCC(=O)N2C2CCN(Cc3ccc(Cl)c(C)c3)CC2)c1 [Example 177] | 97% | 24 nM |
| Cc1cc(CN2CCC(N3C(=O)CC[C@@H]3C(=O)Nc3cc(-n4cccn4)ccn3)CC2)ccc1Cl [Example 101] | 95% | 45 nM |
| Cc1cc(CN2CCC(N3C(=O)CC[C@@H]3C(=O)Nc3cccc(C(=O)NC(C)(C)C)c3)CC2)ccc1Cl [Example 158] | 100% | 16 nM |
| COc1cc(NC(=O)[C@H]2CCC(=O)N2C2CCN(Cc3ccc(Cl)c(C)c3)CC2)cc(C(=O)N(C)C)c1 [Example 173] | 99% | 13 nM |
| CCS(=O)(=O)N(CC(=O)N(C)C)c1cccc(NC(=O)[C@H]2CCC(=O)N2C2CC3CCC(C2)N3Cc2ccc(Cl)c(C)c2)c1 (stereo partly shown) [Example 79] | 91% | 52 nM |
| Cc1cc(CN2CCC(N3C(=O)CC[C@@H]3C(=O)N3CCCc4ccccc43)CC2)ccc1Cl [Example 15] | 38% | 1110 nM |
| Cc1cc(CN2CCC(N3C(=O)CC[C@@H]3C(=O)Nc3cccc(N4CCN(C)C4=O)c3)CC2)ccc1Cl [Example 18] | 96% | 7 nM |
| Cc1cc(CN2CCC(N3C(=O)CC[C@@H]3C(=O)Nc3cc(C(=O)N(C)C)cc(-c4nnnn4C)c3)CC2)ccc1Cl [Example 185] | 98% | 1 nM |
| Cc1cc(CN2CCC(N3C(=O)CC[C@@H]3C(=O)Nc3cccc(C(=O)NCC4CC4)c3)CC2)ccc1Cl [Example 136] | 100% | 4 nM |
